For six compounds, EC50 and fold induction results are on record in US8895583B2, “Soluble guanylate cyclase activators” (Merck Sharp & Dohme Corp., priority 2010, dated 2014).

Each structure is given as a SMILES string.

This assay deals with T1, sGC α1/β1 heterodimer (Homo sapiens, UniProt Q02108+Q02153).
T1 construct: expressed in transfected cells
T1 sequence (Q02108 1-690 partner): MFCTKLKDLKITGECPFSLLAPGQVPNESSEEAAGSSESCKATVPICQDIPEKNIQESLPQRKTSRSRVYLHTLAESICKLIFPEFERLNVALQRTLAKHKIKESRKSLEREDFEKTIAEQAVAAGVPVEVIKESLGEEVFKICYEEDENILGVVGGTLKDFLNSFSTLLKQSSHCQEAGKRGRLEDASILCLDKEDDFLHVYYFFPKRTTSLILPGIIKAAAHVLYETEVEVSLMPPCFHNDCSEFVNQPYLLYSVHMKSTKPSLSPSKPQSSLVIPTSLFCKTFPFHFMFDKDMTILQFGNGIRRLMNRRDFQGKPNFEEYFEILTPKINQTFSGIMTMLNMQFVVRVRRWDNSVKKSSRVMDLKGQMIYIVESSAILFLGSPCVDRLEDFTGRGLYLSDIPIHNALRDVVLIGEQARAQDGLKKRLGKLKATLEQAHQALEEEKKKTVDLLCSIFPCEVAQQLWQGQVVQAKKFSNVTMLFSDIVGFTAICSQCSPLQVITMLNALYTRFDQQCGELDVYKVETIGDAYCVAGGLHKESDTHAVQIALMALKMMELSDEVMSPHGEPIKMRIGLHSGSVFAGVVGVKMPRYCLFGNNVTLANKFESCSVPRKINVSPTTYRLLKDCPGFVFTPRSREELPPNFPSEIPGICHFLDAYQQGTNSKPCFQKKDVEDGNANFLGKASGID
T1 sequence (Q02153 1-619): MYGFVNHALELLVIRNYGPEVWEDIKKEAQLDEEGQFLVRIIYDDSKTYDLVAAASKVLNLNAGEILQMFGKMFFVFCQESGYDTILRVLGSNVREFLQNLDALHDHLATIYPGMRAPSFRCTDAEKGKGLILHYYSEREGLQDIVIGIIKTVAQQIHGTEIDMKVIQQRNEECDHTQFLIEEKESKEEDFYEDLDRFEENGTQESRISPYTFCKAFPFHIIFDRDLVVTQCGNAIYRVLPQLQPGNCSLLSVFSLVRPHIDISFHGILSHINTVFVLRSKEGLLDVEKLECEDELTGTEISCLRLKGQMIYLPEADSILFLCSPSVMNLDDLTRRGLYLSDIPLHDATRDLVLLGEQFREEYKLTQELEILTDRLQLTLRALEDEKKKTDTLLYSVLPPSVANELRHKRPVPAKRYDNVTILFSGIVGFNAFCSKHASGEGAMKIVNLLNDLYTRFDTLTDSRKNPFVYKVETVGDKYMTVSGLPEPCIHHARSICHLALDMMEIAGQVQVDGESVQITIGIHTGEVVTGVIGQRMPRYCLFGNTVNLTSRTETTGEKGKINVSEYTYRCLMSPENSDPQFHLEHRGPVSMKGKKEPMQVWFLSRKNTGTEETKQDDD
The assay is described as follows: Cell-based sGC Functional Assay (cGMP level by HTRF in CHO-K1/sGC cells). To be noted: with ODQ incubation (10 μM); for EC50: read-out: IP (nM) inflection point; for fold induction: read-out: maximum fold induction over DMSO control. The source says: Cell-based sGC Functional Assay
A CHO-K1 cell line stably expressing the sGC α1/β1 heterodimer was generated using a standard transfection protocol. CHO-K1 cells were transfected with plasmids pIREShyghsGCα1 and pIRESneo-hsGCβ1 simultaneously using FUGENE reagent. Clones that stably express both subunits were selected with hygromycin and neomycin for ˜2 weeks. Clone #7 was chosen for the assay and was designated CHO-K1/sGC. CHO-K1/sGC cells were maintained in F-K12 medium containing 10% heat-inactivated Fetal Bovine Serum (FBS), 100 μg/mL penicillin/streptomycin, 0.5 mg/mL hygromycin and 0.25 mg/mL G418. On the day of the assay, cells were harvested in EBSS (Earle's balanced salt solution) Assay Buffer (EAB) containing 5 mM MgCl2, 10 mM HEPES (4-(2-hydroxyethyl)piperazine-1-ethanesulfonic acid) and 0.05% BSA (bovine serum albumin) and cell density was adjusted to 0.75−1.25×10^6 cells/ml with EAB. IBMX (3-isobutyl-1-methylxanthin, 0.5 mM) was added to inhibit degradation of cGMP. Compounds were diluted from DMSO stock solutions and added to the assay at a final DMSO concentration of 1%. Cells were incubated with compounds in the presence and absence of 10 μM of 1H-(1,2,4)oxadiazolo(4,3-a) quinoxalin-1-one (ODQ) for 1 hr at 37° C. At the end of the incubation period, the reaction was terminated and the cells were lysed. The level of intracellular cGMP was determined using an HTRF-based assay kit (CisBio, 62GM2PEC), which detects the displacement of a fluorescence labeled cGMP from its specific antibody. The amount of cGMP was plotted against compound concentration in PRISM software and the inflection point (IP) and maximum fold induction over DMSO control were derived from the plot.
Background: In TR-FRET formats the signal depends on donor and acceptor labels being close together.

Regarding `O=C(O)c1cnn(-c2cccc(-c3cc(Cl)ccc3-c3ccc(C4CCN(CC(F)(F)F)CC4)cc3)n2)c1C(F)(F)F` [Example 60, 1-(6-{4-chloro-4′-[1-(2,2,2-trifluoroethyl)piperidin-4-yl]biphenyl-2-yl}pyridin-2-yl)-5-(trifluoromethyl)-1H-pyrazole-4-carboxylic acid], the EC50 was 14.6 nM and the fold induction came to 231.
Take `O=C(O)c1cnn(-c2cccc(-c3cc(C(F)(F)F)cnc3-c3ccc(C4CCN(CC(F)(F)F)CC4)cc3)n2)c1C(F)(F)F` [Example 61, 1-[2′-{4-[1-(2,2,2-trifluoroethyl)piperidin-4-yl]phenyl}-5′-(trifluoromethyl)-2,3′-bipyridin-6-yl]-5-(trifluoromethyl)-1H-pyrazole-4-carboxylic acid]: the EC50 was determined as 16.3 nM and the fold induction came to 248.
In the case of `O=C(O)c1cnn(-c2cccc(-c3cc(Cl)ccc3-c3ccc(C4CCN(C(=O)C5CC5)CC4)cc3)n2)c1C(F)(F)F` [Example 94, 1-(6-{4-chloro-4′-[1-(cyclopropylcarbonyl)piperidin-4-yl]biphenyl-2-yl}pyridin-2-yl)-5-(trifluoromethyl)-1H-pyrazole-4-carboxylic acid], the EC50 worked out at 30.2 nM and the fold induction came to 281.
Taken in the same sequence, the figures for `COC(=O)N1CCC(c2ccc(-c3ccc(C(F)(F)F)cc3-c3cccc(-n4ncc(C(=O)O)c4C(F)(F)F)n3)cc2)CC1` [Example 127, 1-{6-[4′-[1-(methoxycarbonyl)piperidin-4-yl]-4-(trifluoromethyl)biphenyl-2-yl]pyridin-2-yl}-5-(trifluoromethyl)-1H-pyrazole-4-carboxylic acid] were 15.8 nM and 119.
Taken in the same sequence, the figures for `O=C(O)c1cnn(-c2cccc(-c3cc(F)ccc3-c3ccc(C4CCN(CCC(F)(F)F)CC4)cc3)n2)c1C(F)(F)F` [Example 136, 1-(6-{4-fluoro-4′-[1-(3,3,3-trifluoropropyl)piperidin-4-yl]biphenyl-2-yl}pyridin-2-yl)-5-(trifluoromethyl)-1H-pyrazole-4-carboxylic acid] were 78.8 nM and 162.
Taken in the same sequence, the figures for `O=C(O)c1cnn(-c2cccc(-c3cc(Cl)ccc3-c3ccc(N4CCN(CC(F)(F)F)CC4)cc3)n2)c1C(F)(F)F` [Example 175, 1-(6-{4-chloro-4′-[4-(2,2,2-trifluoroethyl)piperazin-1-yl]biphenyl-2-yl}pyridin-2-yl)-5-(trifluoromethyl)-1H-pyrazole-4-carboxylic acid] were 9.8 nM and 703.
